Measured values reported in ChEMBL document CHEMBL1921760, “Design, synthesis and biological evaluation of 6-pyridylmethylaminopurines as CDK inhibitors” (Bioorg Med Chem, 2011).

System: not listed separately
Assay: Inhibition of PKA
Details: not given

Going from `CCC(O)[C@H](CC)Nc1nc(NCc2ccccc2)c2ncn(C(C)C)c2n1` (mixture of isomers) to `CCC(O)[C@@H](CC)Nc1nc(NCc2ccccc2)c2ncn(C(C)C)c2n1` (mixture of isomers), the IC50 falls from > 200 µM to 139 µM.

`CC[C@H](Nc1nc(NCc2ccccn2)c2ncn(C(C)C)c2n1)C(O)C(C)C` (mixture of isomers) and `CCC(O)[C@@H](CC)Nc1nc(NCc2ccccn2)c2ncn(C(C)C)c2n1` (mixture of isomers) cannot be ordered by IC50: > 200 µM for the first, > 200 µM for the second.

`CC[C@H](CO)Nc1nc(NCc2ccccn2)c2ncn(C(C)C)c2n1` and `CC[C@H](CO)Nc1nc(NCc2ccncc2)c2ncn(C(C)C)c2n1` cannot be ordered by IC50: > 50 µM for the first, > 50 µM for the second.

System: not listed separately
Assay: Metabolic stability in mouse liver microsomes assessed as compound metabolized at 10 uM after 30 mins by LC-MS analysis
Assay type: ADME, Microsome
Details: read-out: Activity

Compared with `CCC(O)[C@H](CC)Nc1nc(NCc2ccccc2)c2ncn(C(C)C)c2n1` (mixture of isomers), `CCC(O)[C@@H](CC)Nc1nc(NCc2ccccc2)c2ncn(C(C)C)c2n1` (mixture of isomers) is lower in metabolised at 0.5 h, 10 µM: 67% for the first, 63% for the second.

Compared with `CC[C@H](Nc1nc(NCc2ccccn2)c2ncn(C(C)C)c2n1)C(O)C(C)C` (mixture of isomers), `CCC(O)[C@@H](CC)Nc1nc(NCc2ccccn2)c2ncn(C(C)C)c2n1` (mixture of isomers) is higher in metabolised at 0.5 h, 10 µM: 23% for the first, 88% for the second.

`CC[C@H](CO)Nc1nc(NCc2ccncc2)c2ncn(C(C)C)c2n1` showed a metabolised at 0.5 h, 10 µM of 3%.

System: CH1
Assay: Growth inhibition of doxorubicin-resistant human CH1 cells after 96 hrs by sulforhodamine B assay
Assay type: functional
Details: CH1, 96 h

Compared with `CC[C@H](Nc1nc(NCc2ccccn2)c2ncn(C(C)C)c2n1)C(O)C(C)C` (mixture of isomers), `CCC(O)[C@@H](CC)Nc1nc(NCc2ccccn2)c2ncn(C(C)C)c2n1` (mixture of isomers) is lower in GI50: > 50 µM for the first, 26 µM for the second.

`CCC(O)[C@@H](CC)Nc1nc(NCc2ccccc2)c2ncn(C(C)C)c2n1` (mixture of isomers) and `CC[C@H](CO)Nc1nc(NCc2ccccn2)c2ncn(C(C)C)c2n1` are within 1.5-fold of each other in GI50: 18 µM for the first, 23 µM for the second.

Biological target: Cyclin-dependent kinase 4/cyclin D1 (Homo sapiens, UniProt P11802)
Sequence (P11802 whole entry): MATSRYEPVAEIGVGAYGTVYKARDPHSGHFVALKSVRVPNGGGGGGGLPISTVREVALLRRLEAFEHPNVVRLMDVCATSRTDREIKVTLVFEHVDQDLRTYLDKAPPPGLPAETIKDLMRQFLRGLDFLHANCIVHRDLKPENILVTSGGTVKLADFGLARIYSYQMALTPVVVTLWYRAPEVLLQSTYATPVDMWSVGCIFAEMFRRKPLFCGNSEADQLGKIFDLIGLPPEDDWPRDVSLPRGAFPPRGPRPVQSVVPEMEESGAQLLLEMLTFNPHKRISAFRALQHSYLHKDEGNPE
Sequence (P24385 whole entry, further chain): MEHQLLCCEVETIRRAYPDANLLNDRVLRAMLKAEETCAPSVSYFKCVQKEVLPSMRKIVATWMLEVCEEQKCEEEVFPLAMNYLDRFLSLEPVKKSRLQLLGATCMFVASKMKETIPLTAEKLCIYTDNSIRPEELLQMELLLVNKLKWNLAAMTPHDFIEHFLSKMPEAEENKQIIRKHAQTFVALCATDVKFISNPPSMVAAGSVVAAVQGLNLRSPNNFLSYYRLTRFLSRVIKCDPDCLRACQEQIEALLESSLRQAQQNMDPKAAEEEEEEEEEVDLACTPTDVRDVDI
Assay: Inhibition of CDK4/cyclin D1
Assay type: protein-complex assay
Details: not given

Going from `CCC(O)[C@H](CC)Nc1nc(NCc2ccccc2)c2ncn(C(C)C)c2n1` (mixture of isomers) to `CC[C@H](CO)Nc1nc(NCc2ccccn2)c2ncn(C(C)C)c2n1`, the IC50 falls from 20 µM to 3.8 µM (5.3-fold). The second is the more potent here.

System: KM12
Assay: Growth inhibition of human KM12 cells after 96 hrs by sulforhodamine B assay
Assay type: functional
Details: KM12, 96 h

`CCC(O)[C@H](CC)Nc1nc(NCc2ccccc2)c2ncn(C(C)C)c2n1` (mixture of isomers) and `CCC(O)[C@@H](CC)Nc1nc(NCc2ccccc2)c2ncn(C(C)C)c2n1` (mixture of isomers) are within 1.5-fold of each other in GI50: 27 µM for the first, 23 µM for the second.

First: CC[C@H](Nc1nc(NCc2ccccn2)c2ncn(C(C)C)c2n1)C(O)C(C)C (mixture of isomers)
Second: CCC(O)[C@@H](CC)Nc1nc(NCc2ccccn2)c2ncn(C(C)C)c2n1 (mixture of isomers)
The GI50 of the first is higher: > 50 µM for the first, 45 µM for the second.

Compared with `CC[C@H](CO)Nc1nc(NCc2ccccn2)c2ncn(C(C)C)c2n1`, `CC[C@H](CO)Nc1nc(NCc2ccncc2)c2ncn(C(C)C)c2n1` is 5.4-fold lower in GI50: 38 µM for the first, 7 µM for the second.

System: HT-29
Assay: Growth inhibition of human HT-29 cells after 96 hrs by sulforhodamine B assay
Assay type: functional
Details: HT-29, 96 h

`CCC(O)[C@H](CC)Nc1nc(NCc2ccccc2)c2ncn(C(C)C)c2n1` (mixture of isomers) and `CCC(O)[C@@H](CC)Nc1nc(NCc2ccccc2)c2ncn(C(C)C)c2n1` (mixture of isomers) are the same in GI50: 23 µM for the first, 23 µM for the second.

`CC[C@H](Nc1nc(NCc2ccccn2)c2ncn(C(C)C)c2n1)C(O)C(C)C` (mixture of isomers) and `CCC(O)[C@@H](CC)Nc1nc(NCc2ccccn2)c2ncn(C(C)C)c2n1` (mixture of isomers) cannot be ordered by GI50: > 50 µM for the first, > 50 µM for the second.

Going from `CC[C@H](CO)Nc1nc(NCc2ccccn2)c2ncn(C(C)C)c2n1` to `CC[C@H](CO)Nc1nc(NCc2ccncc2)c2ncn(C(C)C)c2n1`, the GI50 falls from 54 µM to 23 µM (2.3-fold).

System: HCT-116
Assay: Growth inhibition of human HCT116 cells after 96 hrs by sulforhodamine B assay
Assay type: functional
Details: HCT-116, 96 h

`CCC(O)[C@H](CC)Nc1nc(NCc2ccccc2)c2ncn(C(C)C)c2n1` (mixture of isomers) and `CCC(O)[C@@H](CC)Nc1nc(NCc2ccccc2)c2ncn(C(C)C)c2n1` (mixture of isomers) are within 1.5-fold of each other in GI50: 20 µM for the first, 26 µM for the second.

Going from `CC[C@H](Nc1nc(NCc2ccccn2)c2ncn(C(C)C)c2n1)C(O)C(C)C` (mixture of isomers) to `CCC(O)[C@@H](CC)Nc1nc(NCc2ccccn2)c2ncn(C(C)C)c2n1` (mixture of isomers), the GI50 falls from > 50 µM to 29 µM.

First: CC[C@H](CO)Nc1nc(NCc2ccccn2)c2ncn(C(C)C)c2n1
Second: CC[C@H](CO)Nc1nc(NCc2ccncc2)c2ncn(C(C)C)c2n1
The GI50 of the first is 2.6-fold higher: 26 µM for the first, 10 µM for the second.

System: CH1
Assay: Growth inhibition of doxorubicin-susceptible human CH1 cells after 96 hrs by sulforhodamine B assay
Assay type: functional
Details: CH1, 96 h

Going from `CC[C@H](Nc1nc(NCc2ccccn2)c2ncn(C(C)C)c2n1)C(O)C(C)C` (mixture of isomers) to `CCC(O)[C@@H](CC)Nc1nc(NCc2ccccn2)c2ncn(C(C)C)c2n1` (mixture of isomers), the GI50 falls from > 50 µM to 27 µM.

Compared with `CCC(O)[C@@H](CC)Nc1nc(NCc2ccccc2)c2ncn(C(C)C)c2n1` (mixture of isomers), `CC[C@H](CO)Nc1nc(NCc2ccncc2)c2ncn(C(C)C)c2n1` is 2.8-fold lower in GI50: 23 µM for the first, 8.2 µM for the second.

With `CC[C@H](CO)Nc1nc(NCc2ccccn2)c2ncn(C(C)C)c2n1` the GI50 was 26 µM.

System: A2780
Assay: Growth inhibition of cisplatin-susceptible human A2780 cells after 96 hrs by sulforhodamine B assay
Assay type: functional
Details: A2780, 96 h

`CCC(O)[C@H](CC)Nc1nc(NCc2ccccc2)c2ncn(C(C)C)c2n1` (mixture of isomers) and `CCC(O)[C@@H](CC)Nc1nc(NCc2ccccc2)c2ncn(C(C)C)c2n1` (mixture of isomers) are within 1.5-fold of each other in GI50: 16 µM for the first, 14.5 µM for the second.

Compared with `CC[C@H](Nc1nc(NCc2ccccn2)c2ncn(C(C)C)c2n1)C(O)C(C)C` (mixture of isomers), `CCC(O)[C@@H](CC)Nc1nc(NCc2ccccn2)c2ncn(C(C)C)c2n1` (mixture of isomers) is 1.6-fold lower in GI50: 35 µM for the first, 22 µM for the second.

`CC[C@H](CO)Nc1nc(NCc2ccccn2)c2ncn(C(C)C)c2n1` and `CC[C@H](CO)Nc1nc(NCc2ccncc2)c2ncn(C(C)C)c2n1` are within 1.5-fold of each other in GI50: 21.5 µM for the first, 23 µM for the second.

System: A2780
Assay: Growth inhibition of cisplatin-resistant human A2780 cells after 96 hrs by sulforhodamine B assay
Assay type: functional
Details: A2780, 96 h

`CCC(O)[C@H](CC)Nc1nc(NCc2ccccc2)c2ncn(C(C)C)c2n1` (mixture of isomers) and `CCC(O)[C@@H](CC)Nc1nc(NCc2ccccc2)c2ncn(C(C)C)c2n1` (mixture of isomers) are the same in GI50: 21 µM for the first, 21 µM for the second.

First: CC[C@H](Nc1nc(NCc2ccccn2)c2ncn(C(C)C)c2n1)C(O)C(C)C (mixture of isomers)
Second: CCC(O)[C@@H](CC)Nc1nc(NCc2ccccn2)c2ncn(C(C)C)c2n1 (mixture of isomers)
The GI50 of the first is higher: > 50 µM for the first, 40 µM for the second.

`CC[C@H](CO)Nc1nc(NCc2ccccn2)c2ncn(C(C)C)c2n1` and `CC[C@H](CO)Nc1nc(NCc2ccncc2)c2ncn(C(C)C)c2n1` are within 1.5-fold of each other in GI50: 28 µM for the first, 22 µM for the second.

Biological target: Cyclin-dependent kinase 1/cyclin B1 (Homo sapiens, UniProt P06493)
Sequence (P06493 whole entry): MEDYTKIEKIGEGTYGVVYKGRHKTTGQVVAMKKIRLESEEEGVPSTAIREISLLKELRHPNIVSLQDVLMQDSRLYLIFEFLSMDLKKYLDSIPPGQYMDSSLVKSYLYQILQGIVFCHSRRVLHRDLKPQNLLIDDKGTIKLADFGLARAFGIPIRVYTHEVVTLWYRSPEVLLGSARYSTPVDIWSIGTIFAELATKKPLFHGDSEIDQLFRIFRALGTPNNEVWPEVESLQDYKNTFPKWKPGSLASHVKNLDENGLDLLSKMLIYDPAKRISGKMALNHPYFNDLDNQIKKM
Sequence (P14635 whole entry, further chain): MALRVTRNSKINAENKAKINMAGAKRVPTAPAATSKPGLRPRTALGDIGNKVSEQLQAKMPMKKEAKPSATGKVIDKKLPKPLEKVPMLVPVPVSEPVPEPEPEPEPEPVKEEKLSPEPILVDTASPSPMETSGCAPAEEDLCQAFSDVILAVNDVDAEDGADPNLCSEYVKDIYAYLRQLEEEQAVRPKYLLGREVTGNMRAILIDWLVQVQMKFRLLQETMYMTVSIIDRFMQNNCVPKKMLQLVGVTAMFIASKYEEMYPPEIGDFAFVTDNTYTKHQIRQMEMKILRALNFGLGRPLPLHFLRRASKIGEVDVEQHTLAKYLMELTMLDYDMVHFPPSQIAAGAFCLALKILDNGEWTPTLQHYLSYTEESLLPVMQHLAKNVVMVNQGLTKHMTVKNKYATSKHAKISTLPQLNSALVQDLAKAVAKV
Assay: Inhibition of CDK1/cyclin B
Assay type: protein-complex assay
Details: not given

`CC[C@H](Nc1nc(NCc2ccccn2)c2ncn(C(C)C)c2n1)C(O)C(C)C` (mixture of isomers) gave an IC50 of 200 µM.

Biological target: Cyclin-dependent kinase 7/ cyclin H (Homo sapiens, UniProt P50613)
Sequence (P51946 whole entry): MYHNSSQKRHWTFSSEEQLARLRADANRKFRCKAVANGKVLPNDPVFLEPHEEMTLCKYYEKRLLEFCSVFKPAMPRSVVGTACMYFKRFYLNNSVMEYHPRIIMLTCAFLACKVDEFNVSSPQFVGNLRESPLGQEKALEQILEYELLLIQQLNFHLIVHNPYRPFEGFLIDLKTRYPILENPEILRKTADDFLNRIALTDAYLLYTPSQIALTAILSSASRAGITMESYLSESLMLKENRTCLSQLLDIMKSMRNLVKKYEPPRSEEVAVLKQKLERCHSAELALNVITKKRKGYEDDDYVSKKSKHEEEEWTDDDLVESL
Sequence (P50613 whole entry): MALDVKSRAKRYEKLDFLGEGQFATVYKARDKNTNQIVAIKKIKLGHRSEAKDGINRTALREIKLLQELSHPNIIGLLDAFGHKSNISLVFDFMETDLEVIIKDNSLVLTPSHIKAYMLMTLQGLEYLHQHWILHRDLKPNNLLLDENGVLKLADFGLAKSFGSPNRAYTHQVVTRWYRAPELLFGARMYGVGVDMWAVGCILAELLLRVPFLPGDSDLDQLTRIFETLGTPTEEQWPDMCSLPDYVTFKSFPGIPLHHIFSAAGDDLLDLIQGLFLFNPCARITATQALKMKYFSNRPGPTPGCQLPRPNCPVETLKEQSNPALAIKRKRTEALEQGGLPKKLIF
Assay: Inhibition of CDK7/cyclin H
Assay type: protein-complex assay
Details: not given

Compared with `CCC(O)[C@H](CC)Nc1nc(NCc2ccccc2)c2ncn(C(C)C)c2n1` (mixture of isomers), `CC[C@H](CO)Nc1nc(NCc2ccccn2)c2ncn(C(C)C)c2n1` is 28-fold lower in IC50: 1100 nM for the first, 40 nM for the second. The second is the more potent here.
